Experiments:
[1] = test system: SKOV3-Ip1 / HeyA8 tumor xenograft; assay: Combination study, intraperitoneal ovarian tumor xenograft models in nude mice; type: in vivo; conditions: pazopanib 100 mg/kg oral daily
Method: Tumor cells were injected intraperitoneally into nude mice. For the first study, mice were inoculated with 1,000,000 SKOV3-Ip1 cells. For the second study, mice were inoculated with 250,000 HeyA8 cells. At the time of inoculation, mice were randomized into groups to be treated by oral gavage and intraperitoneal injection. The animals were grouped as described below. The criteria for end point was animals in any group being moribund. At the time of dissection, animals were sacrificed by cervical dislocation and necropsy immediately performed. Tumor nodules were counted and aggregate tumor weight (g) was recorded. Tumors were fixed in 10% formalin, and fresh tumor was flash-frozen for future analysis.
The goal of this study was to determine the in vivo effects of each of pazopanib, the FAK inhibitor, and docetaxel, alone and in combinations. Nude mice were inoculated with tumor as described above and randomized to the groups below. The following doses of each inhibitor were used: FAK-inhibitor, 75 mg/kg, oral, daily; pazopanib, 100 mg/kg, oral, daily; docetaxel, 35 ug, IP, weekly. […] Tumor nodules were counted and aggregate tumor weight (g) was recorded. […]
In vitro dose-response, in vivo tumor growth and scoring of the immunohistochemistry are presented as mean±Standard Error. Statistical significance was assessed by student's T-test and P≦0.05 was considered to be significant. […]

[2] = test system: SKOV3-IP1 cells; assay: Migration of SKOV3-IP1 cells; type: cell-based, human; conditions: p<0.001
[3] = test system: SKOV3-IP1 cells; assay: Invasion of SKOV3-IP1 cells; type: cell-based, human; conditions: p<0.001
[4] = target: T1, FAK phosphorylation at Y397 (pFAK^Y397) (Homo sapiens, UniProt Q05397); assay: FAK phosphorylation at Y397 (pFAK Y397) in ovarian cancer cells; type: cell-based
T1 construct: endogenous in cells; host or cells: SKOV3-IP1 and HeyA8 cells
T1 sequence (Q05397 whole entry): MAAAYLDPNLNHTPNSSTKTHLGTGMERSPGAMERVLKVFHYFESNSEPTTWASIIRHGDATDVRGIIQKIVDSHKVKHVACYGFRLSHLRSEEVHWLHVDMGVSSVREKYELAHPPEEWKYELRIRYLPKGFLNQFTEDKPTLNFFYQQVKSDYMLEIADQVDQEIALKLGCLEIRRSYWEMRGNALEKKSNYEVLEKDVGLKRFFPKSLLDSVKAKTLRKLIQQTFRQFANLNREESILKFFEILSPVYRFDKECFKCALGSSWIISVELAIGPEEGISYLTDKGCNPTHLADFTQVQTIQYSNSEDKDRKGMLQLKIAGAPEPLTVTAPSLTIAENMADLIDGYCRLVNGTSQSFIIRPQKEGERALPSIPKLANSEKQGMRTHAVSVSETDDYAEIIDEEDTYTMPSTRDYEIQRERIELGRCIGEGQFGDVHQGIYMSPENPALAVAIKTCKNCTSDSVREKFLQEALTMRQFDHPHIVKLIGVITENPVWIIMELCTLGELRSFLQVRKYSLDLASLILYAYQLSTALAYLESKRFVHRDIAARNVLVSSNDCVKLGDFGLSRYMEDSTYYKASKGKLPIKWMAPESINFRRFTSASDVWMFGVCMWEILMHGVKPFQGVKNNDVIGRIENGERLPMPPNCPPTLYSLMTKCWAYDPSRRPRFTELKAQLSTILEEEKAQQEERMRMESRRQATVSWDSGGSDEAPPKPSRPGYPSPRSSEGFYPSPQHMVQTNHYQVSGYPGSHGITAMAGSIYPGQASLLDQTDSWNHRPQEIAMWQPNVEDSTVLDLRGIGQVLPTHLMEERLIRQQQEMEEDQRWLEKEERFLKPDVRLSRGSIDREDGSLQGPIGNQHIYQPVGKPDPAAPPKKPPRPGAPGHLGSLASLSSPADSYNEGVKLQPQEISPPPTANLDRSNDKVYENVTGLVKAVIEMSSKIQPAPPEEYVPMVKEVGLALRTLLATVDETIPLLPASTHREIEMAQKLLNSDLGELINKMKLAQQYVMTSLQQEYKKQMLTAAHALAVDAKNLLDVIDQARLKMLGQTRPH

Row | SMILES | decrease of MVD ([1]; p<0.01) | reduction in migration [2] | decrease in mean tumor weight compared to control ([1]; nude mice, i.p. tumor, FAK-inhibitor 75 mg/kg oral daily, docetaxel 35 ug IP weekly) | reduction in invasion [3] | levels of FAK phosphorylation at Y397 (pFAK^Y397) ([4]; HeyA8 cells, 10 μM) | levels of FAK phosphorylation at Y397 (pFAK^Y397) ([4]; SKOV3-IP1 cells, 1 μM concentration)
1 | Cc1ccc(Nc2nccc(N(C)c3ccc4c(C)n(C)nc4c3)n2)cc1S(N)(=O)=O [pazopanib, 5-[[4-[(2,3-dimethyl-2H-indazol-6-yl)methylamino]-2-pyrimidinyl]amino]-2-methylbenzenesulfonamide, reference compound] | 49% |  |  |  |  | 
2 | CONC(=O)c1ccccc1Nc1cc(Nc2cc(C)nn2C(C)C)ncc1Cl [FAK-inhibitor, 2-[(5-chloro-2-[[3-methyl-1-(1-methylethyl)-1H-pyrazol-5-yl]amino]-4-pyridinyl)amino]-N-methoxybenzamide] |  | 54% | 58% | 12.5% | reduced levels | reduced levels

Reference: patent US20160067248A1, “COMBINATIONS” (GlaxoSmithKline Intellectual Property Development Limited, priority 2011, published 2016)
